Reference: ChEMBL document CHEMBL5338820, “Discovery and Design of Novel Cyclic Peptides as Specific Inhibitors Targeting CCN2 and Disrupting CCN2/EGFR Interaction for Kidney Fibrosis Treatment” (J Med Chem, 2023)
The source made the active and inactive calls. The calls are words filed in the database; no cut-off is given here. Peptide text beside a SMILES is read from it.

Assays:
CCN2-EGFR (Homo sapiens) [1] = target: T1, CCN2-EGFR (Homo sapiens) (UniProt P00533+P29279); test: Inhibition of His-tagged full length human CCN2 FL domain/human Fc-tagged EGFR protein-protein interaction using TMB as chromogenic substrate at 100 uM incubated for 140 mins by microplate reader assay relative to control
T1 sequence (P00533 whole entry, looked up, one chain of several, the tested form may be a part): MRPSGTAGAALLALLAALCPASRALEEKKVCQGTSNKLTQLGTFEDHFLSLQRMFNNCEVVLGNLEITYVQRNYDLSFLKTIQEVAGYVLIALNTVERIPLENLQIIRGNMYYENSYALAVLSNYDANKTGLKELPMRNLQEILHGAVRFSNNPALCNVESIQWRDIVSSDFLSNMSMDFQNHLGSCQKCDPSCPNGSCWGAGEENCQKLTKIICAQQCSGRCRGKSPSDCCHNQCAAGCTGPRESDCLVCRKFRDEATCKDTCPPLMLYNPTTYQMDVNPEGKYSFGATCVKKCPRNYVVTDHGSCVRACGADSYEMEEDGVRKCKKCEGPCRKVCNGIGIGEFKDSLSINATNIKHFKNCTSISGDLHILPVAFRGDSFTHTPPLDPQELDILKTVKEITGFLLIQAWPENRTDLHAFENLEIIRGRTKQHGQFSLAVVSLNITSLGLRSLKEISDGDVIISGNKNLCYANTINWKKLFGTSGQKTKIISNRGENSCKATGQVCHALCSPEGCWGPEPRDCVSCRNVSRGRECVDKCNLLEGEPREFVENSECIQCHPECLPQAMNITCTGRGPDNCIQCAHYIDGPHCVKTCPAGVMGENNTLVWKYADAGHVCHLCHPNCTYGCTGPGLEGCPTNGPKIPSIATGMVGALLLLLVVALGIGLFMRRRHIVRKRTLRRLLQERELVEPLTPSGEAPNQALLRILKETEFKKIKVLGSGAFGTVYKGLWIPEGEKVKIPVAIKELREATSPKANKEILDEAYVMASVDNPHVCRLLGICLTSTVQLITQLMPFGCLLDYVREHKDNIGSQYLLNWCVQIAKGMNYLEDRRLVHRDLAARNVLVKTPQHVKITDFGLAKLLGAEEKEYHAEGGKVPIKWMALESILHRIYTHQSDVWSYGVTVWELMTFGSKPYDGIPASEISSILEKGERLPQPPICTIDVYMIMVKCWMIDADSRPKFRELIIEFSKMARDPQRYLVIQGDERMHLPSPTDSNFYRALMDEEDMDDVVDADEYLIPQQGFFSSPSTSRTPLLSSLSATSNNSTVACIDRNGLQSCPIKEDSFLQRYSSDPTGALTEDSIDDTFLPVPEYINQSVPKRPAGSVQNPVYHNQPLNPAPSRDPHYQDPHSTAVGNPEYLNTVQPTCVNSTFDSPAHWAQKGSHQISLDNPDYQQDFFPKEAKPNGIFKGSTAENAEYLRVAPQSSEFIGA

CCN2-EGFR (Homo sapiens) [2] = target: T1, CCN2-EGFR (Homo sapiens); test: Inhibition of His-tagged full length human CCN2 CT domain/human Fc-tagged EGFR protein-protein interaction using TMB as chromogenic substrate at 100 uM incubated for 140 mins by microplate reader assay relative to control
[3] = target: T2, CCN family member 2 (Homo sapiens) (UniProt P29279); test: Inhibition of recombinant human CCN2 CT domain expressed in human […] cells assessed as reduction in fibronectin synthesis at 100 uM incubated for 24 hrs by Western blotting assay; type: cell-based
T2 sequence (whole entry): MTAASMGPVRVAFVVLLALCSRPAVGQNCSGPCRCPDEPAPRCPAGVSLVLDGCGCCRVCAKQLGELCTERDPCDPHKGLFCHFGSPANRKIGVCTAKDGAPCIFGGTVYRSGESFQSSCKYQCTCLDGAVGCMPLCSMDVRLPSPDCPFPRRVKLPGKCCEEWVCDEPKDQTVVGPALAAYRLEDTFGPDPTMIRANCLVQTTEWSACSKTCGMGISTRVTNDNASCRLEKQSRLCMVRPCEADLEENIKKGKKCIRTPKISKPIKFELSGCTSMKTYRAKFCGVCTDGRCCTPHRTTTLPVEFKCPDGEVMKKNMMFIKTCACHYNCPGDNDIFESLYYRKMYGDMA

[4] = target: T2, CCN family member 2 (Homo sapiens); test: Inhibition of recombinant human CCN2 CT domain expressed in human […] cells assessed as reduction in COL1A1 synthesis at 100 uM incubated for 24 hrs by Western blotting assay; type: cell-based
CCN2-EGFR (Homo sapiens) [5] = target: T1, CCN2-EGFR (Homo sapiens); test: Inhibition of His-tagged full length human CCN2 FL domain/human Fc-tagged EGFR protein-protein interaction using TMB as chromogenic substrate at 0.1 mg/ml incubated for 140 mins by microplate reader assay relative to control
CCN2-EGFR (Homo sapiens) [6] = target: T1, CCN2-EGFR (Homo sapiens); test: Inhibition of His-tagged full length human CCN2 CT domain/human Fc-tagged EGFR protein-protein interaction using TMB as chromogenic substrate at 0.1 mg/ml incubated for 140 mins by microplate reader assay relative to control
[7] = target: T2, CCN family member 2 (Homo sapiens); test: Inhibition of recombinant human CCN2 FL domain expressed in human HK-1 cells assessed as reduction in fibronectin synthesis at 0.1 mg/ml incubated for 24 hrs by Western blotting assay; type: cell-based
[8] = target: T2, CCN family member 2 (Homo sapiens); test: Inhibition of recombinant human CCN2 FL domain expressed in human […] cells assessed as reduction in COL1A1 synthesis at 0.1 mg/ml incubated for 24 hrs by Western blotting assay; type: cell-based
[9] = target: T2, CCN family member 2 (Homo sapiens); test: Inhibition of recombinant human CCN2 CT domain expressed in human […] cells assessed as reduction in fibronectin synthesis at 0.1 mg/ml incubated for 24 hrs by Western blotting assay; type: cell-based
[10] = target: T2, CCN family member 2 (Homo sapiens); test: Inhibition of recombinant human CCN2 CT domain expressed in human […] cells assessed as reduction in COL1A1 synthesis at 0.1 mg/ml incubated for 24 hrs by Western blotting assay; type: cell-based
[11] = target: T2, CCN family member 2 (Homo sapiens); test: Inhibition of recombinant human CCN2 FL domain expressed in human […] cells assessed as reduction in STAT3 phosphorylation at 100 uM incubated for 24 hrs by Western blotting assay; type: cell-based
CCN family member 2 = target: T3, CCN family member 2 (Homo sapiens, UniProt P29279); test: Binding affinity to His-tagged full length human CCN2 CT domain assessed as dissociation constant by isothermal titration calorimetry assay
T3 sequence (P29279 whole entry): T2 sequence (whole entry)

[12] = Toxicity in Unilateral ureteric obstruction C57BL/6J mouse model assessed as change in hair color at 250 microg/kg,ip administrated for 14 days; conditions: in vivo, 0.25 mg/kg, 336 h, dose 250 µg/kg, time 14 day
[13] = Toxicity in Unilateral ureteric obstruction C57BL/6J mouse model assessed as change in behaviour at 250 microg/kg,ip administrated for 14 days; conditions: in vivo, 0.25 mg/kg, 336 h, dose 250 µg/kg, time 14 day
[14] = Toxicity in Unilateral ureteric obstruction C57BL/6J mouse model assessed as change in food consumption at 250 microg/kg,ip administrated for 14 days; conditions: in vivo, 0.25 mg/kg, 336 h, dose 250 µg/kg, time 14 day
[15] = Toxicity in Unilateral ureteric obstruction C57BL/6J mouse model assessed as change in body weight at 250 microg/kg,ip administrated for 14 days; conditions: in vivo, 0.25 mg/kg, 336 h, dose 250 µg/kg, time 14 day
Mus musculus [16] = test: Antifibrotic activity against Unilateral ureteric obstruction ligation induced C57BL/6J mouse kidney fibrosis model assessed as reduction of renal tubular injury at 250 microg/kg,ip administrated for 14 days by hematoxylin and eosin staining based analysis; type: functional, organism-based; conditions: dose 250.0 µg/kg, time 14.0 day
Mus musculus [17] = test: Antifibrotic activity against Unilateral ureteric obstruction ligation induced C57BL/6J mouse kidney fibrosis model assessed as reduction of inflammatory infiltration at 250 microg/kg,ip administrated for 14 days by hematoxylin and eosin staining based analysis; type: functional, organism-based; conditions: dose 250.0 µg/kg, time 14.0 day
Mus musculus [18] = test: Antifibrotic activity against Unilateral ureteric obstruction ligation induced C57BL/6J mouse kidney fibrosis model assessed as reduction of collagen formation at 250 microg/kg,ip administrated for 14 days by […] staining based analysis; type: functional, organism-based; conditions: dose 250.0 µg/kg, time 14.0 day
Mus musculus [19] = test: Antifibrotic activity against Unilateral ureteric obstruction ligation induced C57BL/6J mouse kidney fibrosis model assessed as downregulation of EGFR phosphorylation at 250 microg/kg,ip administrated for 14 days by Western blotting analysis; type: functional, organism-based; conditions: dose 250.0 µg/kg, time 14.0 day
Mus musculus [20] = test: Antifibrotic activity against Unilateral ureteric obstruction ligation induced C57BL/6J mouse kidney fibrosis model assessed as downregulation of STAT3 phosphorylation at 250 microg/kg,ip administrated for 14 days by Western blotting analysis; type: functional, organism-based; conditions: dose 250.0 µg/kg, time 14.0 day
Mus musculus [21] = test: Antifibrotic activity against Unilateral ureteric obstruction ligation induced C57BL/6J mouse kidney fibrosis model assessed as downregulation of fibronectin synthesis at 250 microg/kg,ip administrated for 14 days by Western blotting analysis; type: functional, organism-based; conditions: dose 250.0 µg/kg, time 14.0 day
Mus musculus [22] = test: Antifibrotic activity against Unilateral ureteric obstruction ligation induced C57BL/6J mouse kidney fibrosis model assessed as downregulation of COL1A1 synthesis at 250 microg/kg,ip administrated for 14 days by Western blotting analysis; type: functional, organism-based; conditions: dose 250.0 µg/kg, time 14.0 day

Structure (SMILES) | inhibition (CCN2-EGFR (Homo sapiens) [1]) [%] | inhibition (CCN2-EGFR (Homo sapiens) [2]) [%] | inhibition [3] | inhibition [4] | other results
C[C@@H](O)[C@H](NC(=O)[C@H](Cc1c[nH]c2ccccc12)NC(=O)[C@@H]1CCCN1C(=O)[C@H](CCCNC(=N)N)NC(=O)[C@H](Cc1c[nH]cn1)NC(=O)[C@H](Cc1c[nH]cn1)NC(=O)[C@@H](NC(=O)[C@@H](NC(=O)[C@@H](N)CC(=O)O)[C@@H](C)O)[C@@H](C)O)C(N)=O (H-DTTHHRPWT-NH2) | 63.7 | 65.8 | Active | Active | –
C[C@@H](O)[C@H](NC(=O)[C@H](Cc1c[nH]c2ccccc12)NC(=O)[C@@H]1CCCN1C(=O)[C@H](CCCNC(=N)N)NC(=O)[C@H](Cc1c[nH]cn1)NC(=O)[C@@H](N)Cc1c[nH]cn1)C(N)=O (H-HHRPWT-NH2) | 16 | 9.4 | inactive | inactive | –
C[C@@H](O)[C@H](NC(=O)[C@H](Cc1c[nH]c2ccccc12)NC(=O)[C@@H]1CCCN1C(=O)[C@H](CCCNC(=N)N)NC(=O)[C@@H](N)Cc1c[nH]cn1)C(N)=O (H-HRPWT-NH2) | 13.9 | 7.9 | inactive | inactive | –
CC(C)C[C@H](N)C(=O)N[C@@H](C)C(=O)N[C@@H](CC(=O)O)C(=O)N[C@H](C(=O)N[C@H](C(=O)N[C@@H](Cc1c[nH]cn1)C(=O)N[C@@H](Cc1c[nH]cn1)C(=O)N[C@@H](CCCNC(=N)N)C(=O)N1CCC[C@H]1C(=O)N[C@@H](Cc1c[nH]c2ccccc12)C(=O)N[C@H](C(N)=O)[C@@H](C)O)[C@@H](C)O)[C@@H](C)O (H-LADTTHHRPWT-NH2) | 68.8 | 67.4 | Active | Active | –
CC(C)C[C@H](NC(=O)[C@@H](N)CC(C)C)C(=O)N[C@@H](C)C(=O)N[C@@H](CC(=O)O)C(=O)N[C@H](C(=O)N[C@H](C(=O)N[C@@H](Cc1c[nH]cn1)C(=O)N[C@@H](Cc1c[nH]cn1)C(=O)N[C@@H](CCCNC(=N)N)C(=O)N1CCC[C@H]1C(=O)N[C@@H](Cc1c[nH]c2ccccc12)C(=O)N[C@H](C(N)=O)[C@@H](C)O)[C@@H](C)O)[C@@H](C)O (H-LLADTTHHRPWT-NH2) | – | – | – | – | inhibition (CCN2-EGFR (Homo sapiens) [5]): 39.5%; inhibition (CCN2-EGFR (Homo sapiens) [6]): 71.4%; inhibition [7]: Active; inhibition [8]: Active; inhibition [9]: Active; inhibition [10]: Active
C[C@@H](O)[C@H](N)C(=O)N[C@@H](Cc1c[nH]cn1)C(=O)N[C@@H](Cc1c[nH]cn1)C(=O)N[C@@H](CCCCN)C(=O)N1CCC[C@H]1C(=O)N[C@@H](Cc1c[nH]c2ccccc12)C(=O)N[C@H](C(N)=O)[C@@H](C)O (H-THHKPWT-NH2) | 14.4 | 65.8 | inactive | inactive | –
C[C@@H](O)[C@H](N)C(=O)N[C@@H](Cc1c[nH]cn1)C(=O)N[C@@H](Cc1c[nH]cn1)C(=O)N[C@@H](CCCNC(=N)N)C(=O)N[C@@H](CCCCN)C(=O)N[C@@H](Cc1c[nH]c2ccccc12)C(=O)N[C@H](C(N)=O)[C@@H](C)O (H-THHRKWT-NH2) | 15 | 11 | inactive | inactive | –
C[C@@H](O)[C@H](N)C(=O)N[C@@H](Cc1c[nH]cn1)C(=O)N[C@@H](Cc1c[nH]cn1)C(=O)N[C@@H](CCCNC(=N)N)C(=O)N1CCC[C@H]1C(=O)N[C@@H](Cc1c[nH]c2ccccc12)C(=O)N[C@H](C(N)=O)[C@@H](C)O (H-THHRPWT-NH2) | 66.6 | 62 | Active | Active | –
C[C@@H](O)[C@H](N)C(=O)N[C@@H](Cc1c[nH]cn1)C(=O)N[C@@H](CCCCN)C(=O)N[C@@H](CCCNC(=N)N)C(=O)N1CCC[C@H]1C(=O)N[C@@H](Cc1c[nH]c2ccccc12)C(=O)N[C@H](C(N)=O)[C@@H](C)O (H-THKRPWT-NH2) | 59.7 | 63.4 | Active | Active | –
C[C@@H](O)[C@H](N)C(=O)N[C@@H](CCCCN)C(=O)N[C@@H](Cc1c[nH]cn1)C(=O)N[C@@H](CCCNC(=N)N)C(=O)N1CCC[C@H]1C(=O)N[C@@H](Cc1c[nH]c2ccccc12)C(=O)N[C@H](C(N)=O)[C@@H](C)O (H-TKHRPWT-NH2) | 62.3 | 78.7 | Active | Active | inhibition [11]: Active; Kd (CCN family member 2): 3.9 µM; Activity [12]: Non-Toxic; Activity [13]: Non-Toxic; Activity [14]: Non-Toxic; Activity [15]: Non-Toxic; Activity (Mus musculus [16]): Active; Activity (Mus musculus [17]): Active; Activity (Mus musculus [18]): Active; Activity (Mus musculus [19]): Active; Activity (Mus musculus [20]): Active; Activity (Mus musculus [21]): Active; Activity (Mus musculus [22]): Active
C[C@@H](O)[C@H](N)C(=O)N[C@H](C(=O)N[C@@H](Cc1c[nH]cn1)C(=O)N[C@@H](Cc1c[nH]cn1)C(=O)N[C@@H](CCCNC(=N)N)C(=O)N1CCC[C@H]1C(=O)N[C@@H](Cc1c[nH]c2ccccc12)C(=O)N[C@H](C(N)=O)[C@@H](C)O)[C@@H](C)O (H-TTHHRPWT-NH2) | 68.1 | 60 | Active | Active | –
